From article PMC6479983, “Activity of Estafietin and Analogues on Trypanosoma cruzi and Leishmania braziliensis” (Molecules, 2019)
In brackets after ≈: the same amount, converted by molar mass. Entries after “also recorded” stand apart in the source; their conditions may differ.

Key:
[1] = system: T. cruzi bloodstream trypomastigotes; assay: Trypanocidal activity on T. cruzi bloodstream trypomastigotes (counting of living parasites in Neubauer chamber); type: cell-based, Trypanosoma cruzi; settings: for IC50: Trypanosoma cruzi, 24 h incubation, 0-100 µg/mL, living parasites counted, read-out: IC50 against T. cruzi bloodstream trypomastigotes; for Selectivity Index Trypomastigotes T. cruzi: Vero CC50 relative to trypomastigote IC50; for activity against the infective form of T. cruzi compared with estafietin (in words): trypomastigotes, discussion statement
Procedure: Figure 2 Trypanocidal activity of estafietin (1) and estafietin derivatives (2–5) against T. cruzi bloodstream trypomastigotes. Bloodstream trypomastigotes were assayed in duplicate in the presence of 0 to 100 µg/mL of estafietin (1), 11βH,13-dihydroestafietin (2), α- (3a) and β-epoxyestafietin (3b) (1:4 mixture), 11βH,13-methoxyestafietin (4) and 11βH,13-cianoestafietin (5). Cultures were done in 96-well plates with 1.5 × 10^6 parasites/mL over 24 h. The living parasites were then counted in a Neubauer chamber. Symbols represent mean ± SEM. Each treatment was compared to controls: parasites incubated with culture medium only. * p < 0.05, ** p < 0.01 and *** p < 0.005. TEXT PRINTED IN THE PICTURE: Estafietin (1): IC50 (μg/mL): 25.2 | 11βH,13-dihydroestafietin (2): IC50 (μg/mL): 97.1 | α and β epoxyestafietin (3a and 3b): IC50 (μg/mL): 18.7 | 11βH,13-methoxyestafietin (4): IC50 (μg/mL): >100 | 1βH,13-cianoestafietin (5): IC50 (μg/mL): 78.1
The trypanocidal effect of the purified compounds was tested on transfected bloodstream trypomastigotes (Tulhauen strain). Briefly, mouse blood containing trypomastigotes was diluted in complete LIT medium to adjust the parasite concentration to 2 × 10^6/mL. Parasites were seeded in duplicate in a 96-well microplate in the presence of each compound (0–100 µg/mL) and controls and incubated at 4 °C for 24 h. The number of remaining living parasites in each sample was determined in 5 µL of cell suspension diluted 1/5 in lysis buffer (0.75% NH4Cl, 0.2% Tris, pH 7.2) and counted in a Neubauer chamber.
(§1) Results are presented as means ± SEM. The GraphPad Prism 5.0 software (GraphPad Software Inc., San Diego, CA, USA) was employed to carry out calculations. To calculate IC50 and CC50 values, the percentages of inhibition were plotted against the drug concentration and fitted with a straight line determined by a linear regression (Sigma Plot 10 software, (Systat Software, San Jose, CA, USA). Results presented are representative of three to four independent experiments.

[2] = system: T. cruzi amastigotes; assay: Inhibition of T. cruzi amastigote replication in Vero cells (β-galactosidase transfected parasites, CPRG); type: cell-based, Trypanosoma cruzi; settings: for IC50: infected Vero cells, 0-100 µg/mL, β-galactosidase/CPRG readout, read-out: IC50 against T. cruzi amastigotes (intracellular forms); for Selectivity Index Amastigotes T. cruzi: Vero CC50 relative to amastigote IC50
Procedure: Figure 3 Inhibition of T. cruzi amastigotes replication by estafietin (1) and estafietin derivatives (2–5). Mammalian cells (5 × 10^3 cells/well) were seeded in 96-well plates and infected 24 h later with transfected trypomastigotes expressing β-galactosidase. After 24 h of co-culture, plates were washed and compounds were added at 0–100 µg/mL in 150 µL medium. On day 6 post-infection, the assays were developed by the addition of CPRG (100 mM) and Nonidet P-40 (1%). Plates were incubated for 6 h and the optical density was read at 570 nm. Infected untreated mammalian cells were used as 100% infection control. The percentage of inhibition was calculated as 100 − {[(Absorbance of treated infected cells)/(Absorbance of untreated infected cells)] × 100}. Symbols represent mean ± SEM. Each treatment was compared to controls: parasites incubated with culture medium only. * p < 0.05, ** p < 0.01 and *** p < 0.005. TEXT PRINTED IN THE PICTURE: Estafietin (1): IC50 (μg/mL): 28.8 | 11βH,13-dihydroestafietin (2): IC50 (μg/mL): 83.0 | α and β epoxyestafietin (3a and 3b): IC50 (μg/mL): 2.0 | 11βH,13-methoxyestafietin (4): IC50 (μg/mL): 30.5 | 11βH,13-cianoestafietin (5): IC50 (μg/mL): 99.0
The effect of the compounds on intracellular forms of T. cruzi was assayed using β-galactosidase transfected parasites. Ninety-six well culture plates were seeded with nonphagocytic Vero cells at 5 × 10^3 per well in […] of culture medium and incubated for 24 h at 37 °C in a 5% CO2 atmosphere. Cells were then washed and infected with transfected bloodstream trypomastigotes expressing β-galactosidase at a parasite/cell ratio of 10:1. After […] of coculture, plates were washed twice with PBS to remove unbound parasites and each pure compound was added at different concentrations (0–100 µg/mL) in 150 µL of fresh complete RPMI medium without phenol red (Gibco, Rockville, MD, USA). Controls included infected untreated cells (100% infection control) and uninfected cells (0% infection control). The assay was developed by the addition of chlorophenolred-β-D-galactopyranoside (CPRG) (100 mM) and 1% Nonidet P40, 5 days later. Plates were incubated for 4–6 h at 37 °C and the absorbance was measured at 595 nm in a microplate reader (Bio-Rad Laboratories, Hercules, CA, USA). The percentage inhibition was calculated as 100 – {[(absorbance of treated infected cells)/(absorbance of untreated infected cells) × 100]} and the IC50 value was estimated. Benznidazole was used as positive control.
as §1

[3] = system: L. braziliensis promastigotes; assay: Leishmanicidal activity on L. braziliensis promastigotes ([3H] thymidine uptake assay); type: cell-based, Leishmania braziliensis; settings: for IC50: Leishmania braziliensis, 72 h, 0-50 µg/mL, [3H] thymidine uptake; for Selectivity Index Promastigotes L. braziliensis: Vero CC50 relative to promastigote IC50
Procedure: Figure 4 Leishmanicidal activity of estafietin (1) and estafietin derivatives (2–5) on L. braziliensis promastigotes. Parasites were cultured for 72 h in the presence of each compound (0–50 µg/mL). The inhibition of parasite growth was evaluated by a [^3H] thymidine uptake assay. The percentage of inhibition was calculated as 100 − [(cpm of treated parasites)/(cpm of untreated parasites)] × 100. Values represent mean ± SEM from three independent experiments carried out in triplicate. Each treatment was compared to controls: parasites incubated with culture medium only. * p < 0.05, ** p < 0.01 and *** p < 0.005. TEXT PRINTED IN THE PICTURE: Estafietin (1): IC50 (μg/mL): 1.0 | 11βH,13-dihydroestafietin (2): IC50 (μg/mL): 1.3 | α and β epoxyestafietin (3a and 3b): IC50 (μg/mL): 7.8 | 11βH,13-methoxyestafietin (4): IC50 (μg/mL): 48.7 | 11βH,13-cianoestafietin (5): IC50 (μg/mL): 51.8
The growth inhibition of Leishmania braziliensis promastigotes was evaluated by the (^3H) thymidine [(^3H)T] uptake assay. Parasites (5 × 10^6) were settled at a final volume of 150 µL in a flat-bottom 96-well microplate and cultured at 28 °C in either the absence or the increasing concentrations of the pure compounds (0–50 µg/mL). After 72 h, 1 µC of [^3H]T was added to each well, and cultures were incubated for 16 h. Counts per minute (cpm) of triplicate cultures were measured by an automated liquid scintillation counter (Packard, Downers Grove, IL, USA). The percentage of inhibition was calculated as {100 − [(cpm of treated parasites/cpm of untreated parasites) × 100]}. The compound concentration at which the parasite growth was inhibited by 50% (IC50) was determined. Amphotericin B was used as positive control.
as §1

[4] = Host cell toxicity on Vero cells by the MTT method; type: cell-based; settings: African green monkey, 24 h, 5-500 µg/mL, read-out: CC50 (50% cytotoxic concentration)
Procedure: (§2) The cytotoxicity of the natural and synthetic compounds was evaluated on Vero cells by the MTT method. The 50% cytotoxic concentration (CC50) of each compound was determined. Selectivity indexes (SI) were calculated for T. cruzi trypomastigotes and amastigotes and for L. braziliensis promastigotes (Table 1).
(§3) Vero cells were employed to determine the viability by the 3-(4,5-dimethylthiazol-2yl)-2,5-diphenyltetrazolium bromide (MTT) method. Cells (5 × 10^5) were settled at a final volume of […] in a flat-bottom 96-well microplate and cultured at 37 °C in a 5% CO2 atmosphere in either the absence or the presence of increasing concentrations of the compounds (5–500 µg/mL). After 24 h, MTT was added at a final concentration of 1.5 mg/mL. Plates were incubated for 2 h at 37 °C. The purple formazan crystals formed were dissolved with […] of ethanol and the absorbance was read at 570 nm in a microplate reader. Results were calculated as the ratio between the optical density in the presence and absence of the compound multiplied by 100.
as §1

[5] = system: Vero cells; assay: Host cell toxicity on Vero cells by the MTT method; type: cell-based
Procedure: as §2, §3, §1

[6] = system: T. cruzi epimastigotes; parameters: method as in PMID 23815577; settings: series of 15 STLs; cited from earlier work

SMILES	IC50 [1] [µg/mL]	Selectivity Index Trypomastigotes T. cruzi [1]	activity against the infective form of T. cruzi compared with estafietin (in words) [1]	IC50 ([2]; Trypanosoma cruzi) [µg/mL]	Selectivity Index Amastigotes T. cruzi [2]	IC50 [3] [µg/mL]	Selectivity Index Promastigotes L. braziliensis [3]	CC50 at 24 h [4] [µg/mL]	toxicity on mammalian cells (in words) [5]	activity on T. cruzi epimastigotes (in words) [6]	inhibition at 5 µg/mL ([2]; Trypanosoma cruzi, Vero, at a concentration of 5.0 µg/mL, read-out: percentage of inhibition of T. cruzi amastigotes) [%]
C=C1CCC2C(CC#N)C(=O)OC2C2C1CC1OC12C (stereo not shown) [Compound 5, 11βH,13-cianoestafietin]	78.1 (≈ 286 µM)	1.7	inactive	99 (≈ 362 µM)	1.3	51.8 (≈ 190 µM)	2.7	134 (≈ 489 µM)	low toxicity		
C=C1CCC2C(C)C(=O)OC2C2C1CC1OC12C (stereo not shown) [Compound 2, 11βH,13-dihydroestafietin]	97.1 (≈ 391 µM)	1.7	less active	83 (≈ 334 µM)	2.0	1.3 (≈ 5.24 µM)	126.6	165 (≈ 663 µM)	low toxicity		
C[C@@H]1[C@H](O)[C@@H](C)/C=C/C=C/C=C/C=C/C=C/C=C/C=C/[C@H](O[C@@H]2O[C@H](C)[C@@H](O)[C@H](N)[C@@H]2O)C[C@@H]2O[C@](O)(C[C@@H](O)C[C@@H](O)[C@H](O)CC[C@@H](O)C[C@@H](O)CC(=O)O[C@H]1C)C[C@H](O)[C@H]2C(=O)O [Amphotericin B, reference compound]						0.48 (≈ 0.519 µM)					
C=C1CCC2C(COC)C(=O)OC2C2C1CC1OC12C (stereo not shown) [Compound 4, 11βH,13-methoxyestafietin]	> 100	3.1	less active	30.5 (≈ 110 µM)	10.3	48.7 (≈ 175 µM)		316 (≈ 1130 µM)	low toxicity; also recorded: not toxic		
C=C1CC[C@H]2C(=C)C(=O)O[C@@H]2C2C1C[C@H]1O[C@@]21C (stereo partly shown) [Compound 1, estafietin]	25.2 (≈ 102 µM)	9.5		28.8 (≈ 117 µM)	8.3	1 (≈ 4.06 µM)	240.4	240 (≈ 976 µM)	low toxicity	significant activity	
O=C(Cn1ccnc1[N+](=O)[O-])NCc1ccccc1 [Benznidazole, reference compound]	11.6 (≈ 44.6 µM)			1.8 (≈ 6.92 µM)							
C=C1C(=O)O[C@@H]2C3C(C[C@H]4O[C@@]34C)C3(CC[C@@H]12)CO3 (stereo partly shown) [Compound 3, epoxyestafietin]	18.7 (≈ 71.3 µM)	0.4		2 (≈ 7.62 µM)	4.0	7.8 (≈ 29.7 µM)	1.0	8.1 (≈ 30.9 µM)			> 75
